Experimental data as given in ChEMBL document CHEMBL1201861, “Genomics of Drug Sensitity in Cancer screening data, Wellcome Trust Sanger Institute”.

What was measured:
COLO-678 = assay: cells; format: functional, cell-based, Homo sapiens
Description: SANGER: Inhibition of human COLO-678 cell growth in a cell viability assay.

U-251 = assay: cells; format: functional, cell-based, Homo sapiens;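 further: growth inhibition of human U-251 cells, read out through a cell viability assay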
Description: SANGER: Inhibition of human U251 cell growth in a cell viability assay.

HCC1395 = assay: cells; format: functional, cell-based, Homo sapiens;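 further: growth inhibition of HCC1395 cells, read out by a cell viability assay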
Description: SANGER: Inhibition of human HCC1395 cell growth in a cell viability assay.

SCC-25 = assay: cells; format: functional, cell-based, Homo sapiens;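 further: growth inhibition of SCC-25 cells, measured with a cell viability assay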
Description: SANGER: Inhibition of human SCC-25 cell growth in a cell viability assay.

NCCIT = assay: SANGER: Inhibition of human NCCIT cell growth in a cell viability assay.; format: functional, cell-based
MEL-JUSO = assay: cells; format: functional, cell-based, Homo sapiens;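 further: growth inhibition of human MEL-JUSO cells, read out with a cell viability assay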
Description: SANGER: Inhibition of human MEL-JUSO cell growth in a cell viability assay.

HSC-4 = assay: cells; format: functional, cell-based, Homo sapiens;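 further: growth inhibition of human HSC-4 cells, read out with a cell viability assay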
Description: SANGER: Inhibition of human HSC-4 cell growth in a cell viability assay.

NY = assay: cells; format: functional, cell-based, Homo sapiens
Description: SANGER: Inhibition of human NY cell growth in a cell viability assay.

HCC70 = assay: cells; format: functional, cell-based, Homo sapiens;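 further: cell viability assay measuring how strongly the compound suppresses proliferation of HCC70 cells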
Description: SANGER: Inhibition of human HCC70 cell growth in a cell viability assay.

MDA-MB-361 = assay: cells; format: functional, cell-based, Homo sapiens
CP50-MEL-B = assay: cells; format: functional, cell-based, Homo sapiens;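 further: growth inhibition of the human cell line, measured with a cell viability read-out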
Description: SANGER: Inhibition of human CP50-MEL-B cell growth in a cell viability assay.

EVSA-T = assay: cells; format: functional, cell-based, Homo sapiens;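 further: growth inhibition of EVSA-T cells, read out with a cell viability assay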
Description: SANGER: Inhibition of human EVSA-T cell growth in a cell viability assay.

SKG-IIIa = assay: cells; format: functional, cell-based, Homo sapiens;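 further: cell growth inhibition, read out with a cell viability assay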
Description: SANGER: Inhibition of human SKG-IIIa cell growth in a cell viability assay.

NCI-H1522 = assay: cells; format: functional, cell-based, Homo sapiens;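 further: growth inhibition of NCI-H1522 cells, read out with a cell viability assay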
Description: SANGER: Inhibition of human NCI-H1522 cell growth in a cell viability assay.

NCI-H2170 = assay: cells; format: functional, cell-based, Homo sapiens;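 further: cell viability assay measuring growth inhibition of human NCI-H2170 cancer cells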
Description: SANGER: Inhibition of human NCI-H2170 cell growth in a cell viability assay.

U2OS = assay: cells; format: functional, cell-based, Homo sapiens, U-2-OS;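 further: growth inhibition of human U-2-OS cells, determined with a cell viability assay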
Description: SANGER: Inhibition of human U-2-OS cell growth in a cell viability assay.

MDA-MB-157 = assay: cells; format: functional, cell-based, Homo sapiens
Description: SANGER: Inhibition of human MDA-MB-157 cell growth in a cell viability assay.

SIMA = assay: cells; format: functional, cell-based, Homo sapiens;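 further: growth inhibition of SIMA cells, measured with a cell viability readout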
Description: SANGER: Inhibition of human SIMA cell growth in a cell viability assay.

MDA-MB-175-VII = assay: cells; format: functional, cell-based, Homo sapiens
PA-1 = assay: cells; format: functional, cell-based, Homo sapiens;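 further: IC50 for suppression of PA-1 cell proliferation, determined with a cell viability read-out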
Description: SANGER: Inhibition of human PA-1 cell growth in a cell viability assay.

T98G = assay: cells; format: functional, cell-based, Homo sapiens;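 further: growth inhibition of T98G cells, read out by a cell viability assay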
Description: SANGER: Inhibition of human T98G cell growth in a cell viability assay.

TE-441-T = assay: cells; format: functional, cell-based, Homo sapiens
Description: SANGER: Inhibition of human TE-441-T cell growth in a cell viability assay.

SW1990 = assay: cells; format: functional, cell-based, Homo sapiens
Description: SANGER: Inhibition of human SW1990 cell growth in a cell viability assay.

CAL-120 = assay: cells; format: functional, cell-based, Homo sapiens;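 further: cell growth inhibition, read out as cell viability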
Description: SANGER: Inhibition of human CAL-120 cell growth in a cell viability assay.

KYSE-150 cell line = assay: cells; format: functional, cell-based, Homo sapiens;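 further: growth inhibition of human KYSE-150 cells, read out with a cell viability assay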
Description: SANGER: Inhibition of human KYSE-150 cell growth in a cell viability assay.

NCI-H1437 = assay: cells; format: functional, cell-based, Homo sapiens;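 further: growth inhibition of human NCI-H1437 cells, read out by a cell viability assay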
Description: SANGER: Inhibition of human NCI-H1437 cell growth in a cell viability assay.

SU-DHL-1 = assay: SANGER: Inhibition of human SU-DHL-1 cell growth in a cell viability assay.; format: functional, cell-based
NCI-H727 = assay: cells; format: functional, cell-based, Homo sapiens;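 further: growth inhibition of human NCI-H727 cells, read out with a cell viability assay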
Description: SANGER: Inhibition of human NCI-H727 cell growth in a cell viability assay.

T-24 = assay: cells; format: functional, cell-based, Homo sapiens;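 further: growth inhibition of T-24 cells, read out with a cell viability assay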
Description: SANGER: Inhibition of human T-24 cell growth in a cell viability assay.

MDA-MB-453 = assay: cells; format: functional, cell-based, Homo sapiens
Description: SANGER: Inhibition of human MDA-MB-453 cell growth in a cell viability assay.

CESS = assay: SANGER: Inhibition of human CESS cell growth in a cell viability assay.; format: functional, cell-based
UMC-11 = assay: cells; format: functional, cell-based, Homo sapiens;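 further: growth inhibition of UMC-11 cells, read out with a cell viability assay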
Description: SANGER: Inhibition of human UMC-11 cell growth in a cell viability assay.

NCI-H1703 = assay: cells; format: functional, cell-based, Homo sapiens;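 further: growth inhibition of NCI-H1703 cells, read out via a cell viability assay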
Description: SANGER: Inhibition of human NCI-H1703 cell growth in a cell viability assay.

5637 = assay: cells; format: functional, cell-based, Homo sapiens
Description: SANGER: Inhibition of human 5637 cell growth in a cell viability assay.

SR = assay: cells; format: functional, cell-based, Homo sapiens
Description: SANGER: Inhibition of human SR cell growth in a cell viability assay.

AU565 = assay: cells; format: functional, cell-based, Homo sapiens;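 further: cell viability assay measuring growth inhibition of human AU565 cells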
Description: SANGER: Inhibition of human AU565 cell growth in a cell viability assay.

NCI-H64 = assay: cells; format: functional, cell-based, Homo sapiens;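 further: growth inhibition of NCI-H64 cells, read out with a cell viability assay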
Description: SANGER: Inhibition of human NCI-H64 cell growth in a cell viability assay.

M14 = assay: cells; format: functional, cell-based, Homo sapiens;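 further: growth inhibition of M14 cells, read out with a cell viability assay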
Description: SANGER: Inhibition of human M14 cell growth in a cell viability assay.

NCI-H322M = assay: cells; format: functional, cell-based, Homo sapiens;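 further: cell viability assay measuring inhibition of growth of human NCI-H322M cells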
Description: SANGER: Inhibition of human NCI-H322M cell growth in a cell viability assay.

KYSE-410 = assay: cells; format: functional, cell-based, Homo sapiens;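 further: growth inhibition of KYSE-410 cells, measured through a cell viability readout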
Description: SANGER: Inhibition of human KYSE-410 cell growth in a cell viability assay.

HSC-3 = assay: cells; format: functional, cell-based, Homo sapiens
Description: SANGER: Inhibition of human HSC-3 cell growth in a cell viability assay.

Question: With BLEOMYCIN as the compound, how does the IC50 (COLO-678; colo-678) read?
Answer: The IC50 was 36.2 µM.

Question: What about the IC50 (U-251; u-251) of the same compound?
Answer: The IC50 was 4.36 µM.

Question: And the IC50 (HCC1395; hcc1395)?
Answer: The IC50 was 501 nM.

Question: And the IC50 (SCC-25; scc-25)?
Answer: The IC50 was 415 nM.

Question: What about the IC50 (NCCIT; nccit) of the same compound?
Answer: The IC50 was 1070 nM.

Question: What about the IC50 (MEL-JUSO; mel-juso) of the same compound?
Answer: Its IC50 is 109 nM.

Question: And the IC50 (HSC-4; hsc-4)?
Answer: Its IC50 is 153 µM.

Question: What about the IC50 (NY; ny) of the same compound?
Answer: Its IC50 is 5.91 µM.

Question: And the IC50 (HCC70; hcc70)?
Answer: The IC50 was 126 µM.

Question: And the IC50 (MDA-MB-361; mda-mb-361)?
Answer: Its IC50 is 719 nM.

Question: What about the IC50 (CP50-MEL-B; cp50-mel-b) of the same compound?
Answer: Its IC50 is 3.95 mM.

Question: What about the IC50 (EVSA-T; evsa-t) of the same compound?
Answer: Its IC50 is 861 µM.

Question: And the IC50 (SKG-IIIa; skg-iiia)?
Answer: The IC50 was 136 µM.

Question: And the IC50 (NCI-H1522; nci-h1522)?
Answer: The IC50 was 2.45 mM.

Question: What about the IC50 (NCI-H2170; nci-h2170) of the same compound?
Answer: The IC50 was 162 nM.

Question: What about the IC50 (U2OS; u-2-os) of the same compound?
Answer: The IC50 was 265 µM.

Question: What about the IC50 (MDA-MB-157; mda-mb-157) of the same compound?
Answer: Its IC50 is 307 µM.

Question: What about the IC50 (SIMA; sima) of the same compound?
Answer: Its IC50 is 6.93 µM.

Question: And the IC50 (MDA-MB-175-VII; mda-mb-175-vii)?
Answer: Its IC50 is 1510 nM.

Question: What about the IC50 (PA-1; pa-1) of the same compound?
Answer: The IC50 was 2020 nM.

Question: What about the IC50 (T98G; t98g) of the same compound?
Answer: Its IC50 is 63.7 µM.

Question: What about the IC50 (TE-441-T; te-441-t) of the same compound?
Answer: Its IC50 is 24.6 µM.

Question: What about the IC50 (SW1990; sw1990) of the same compound?
Answer: The IC50 was 4.24 µM.

Question: And the IC50 (CAL-120; cal-120)?
Answer: Its IC50 is 5.56 µM.

Question: What about the IC50 (KYSE-150 cell line; kyse-150) of the same compound?
Answer: The IC50 was 0.00265 µM.

Question: And the IC50 (NCI-H1437; nci-h1437)?
Answer: The IC50 was 0.743 µM.

Question: What about the IC50 (SU-DHL-1; su-dhl-1) of the same compound?
Answer: The IC50 was 2050 nM.

Question: And the IC50 (NCI-H727; nci-h727)?
Answer: The IC50 was 10.3 µM.

Question: And the IC50 (T-24; t-24)?
Answer: Its IC50 is 720 nM.

Question: What about the IC50 (MDA-MB-453; mda-mb-453) of the same compound?
Answer: The IC50 was 15.4 µM.

Question: And the IC50 (CESS; cess)?
Answer: Its IC50 is 0.546 nM.

Question: And the IC50 (UMC-11; umc-11)?
Answer: Its IC50 is 2.36 mM.

Question: What about the IC50 (NCI-H1703; nci-h1703) of the same compound?
Answer: Its IC50 is 16.1 nM.

Question: And the IC50 5637?
Answer: Its IC50 is 29 nM.

Question: What about the IC50 (SR; sr) of the same compound?
Answer: Its IC50 is 29.7 nM.

Question: What about the IC50 (AU565; au565) of the same compound?
Answer: The IC50 was 2050 nM.

Question: What about the IC50 (NCI-H64; nci-h64) of the same compound?
Answer: Its IC50 is 641 nM.

Question: And the IC50 (M14; m14)?
Answer: Its IC50 is 3.22 µM.

Question: And the IC50 (NCI-H322M; nci-h322m)?
Answer: Its IC50 is 7.32 mM.

Question: And the IC50 (KYSE-410; kyse-410)?
Answer: The IC50 was 8.15 µM.

Question: What about the IC50 (HSC-3; hsc-3) of the same compound?
Answer: Its IC50 is 688 nM.

Question: Which IC50 (COLO-678; Homo sapiens, COLO-678) does the source give for `O=C(O)c1ccc(-c2c[nH]c3ncc(-c4ccccc4)cc23)cc1C1CCCC1` [GSK-650394] here?
Answer: The IC50 was > 16 µM.

Question: And the IC50 (U-251; Homo sapiens, U-251)?
Answer: The IC50 was > 16 µM.

Question: What about the IC50 (HCC1395; Homo sapiens, HCC1395) of the same compound?
Answer: Its IC50 is > 16000 nM.

Question: And the IC50 (SCC-25; Homo sapiens, SCC-25)?
Answer: The IC50 was > 16000 nM.

Question: What about the IC50 (NCCIT; Homo sapiens, NCCIT) of the same compound?
Answer: The IC50 was > 16000 nM.

Question: What about the IC50 (MEL-JUSO; Homo sapiens, MEL-JUSO) of the same compound?
Answer: Its IC50 is 4690 nM.

Question: What about the IC50 (HSC-4; Homo sapiens, HSC-4) of the same compound?
Answer: The IC50 was > 16 µM.

Question: What about the IC50 (NY; Homo sapiens, NY) of the same compound?
Answer: The IC50 was > 16 µM.

Question: And the IC50 (HCC70; Homo sapiens, HCC70)?
Answer: The IC50 was > 16 µM.

Question: What about the IC50 (MDA-MB-361; Homo sapiens, MDA-MB-361) of the same compound?
Answer: The IC50 was > 16000 nM.

Question: And the IC50 (CP50-MEL-B; Homo sapiens, CP50-MEL-B)?
Answer: Its IC50 is > 0.016 mM.

Question: What about the IC50 (EVSA-T; Homo sapiens, EVSA-T) of the same compound?
Answer: The IC50 was > 16 µM.

Question: And the IC50 (SKG-IIIa; Homo sapiens, SKG-IIIa)?
Answer: The IC50 was > 16 µM.

Question: What about the IC50 (NCI-H1522; Homo sapiens, NCI-H1522) of the same compound?
Answer: The IC50 was > 0.016 mM.

Question: What about the IC50 (NCI-H2170; Homo sapiens, NCI-H2170) of the same compound?
Answer: Its IC50 is > 16000 nM.

Question: And the IC50 (U2OS; Homo sapiens, U2OS)?
Answer: Its IC50 is > 16 µM.

Question: What about the IC50 (MDA-MB-157; Homo sapiens, MDA-MB-157) of the same compound?
Answer: Its IC50 is > 16 µM.

Question: And the IC50 (SIMA; Homo sapiens, SIMA)?
Answer: The IC50 was > 16 µM.

Question: What about the IC50 (MDA-MB-175-VII; Homo sapiens, MDA-MB-175-VII) of the same compound?
Answer: Its IC50 is > 16000 nM.

Question: And the IC50 (PA-1; Homo sapiens, PA-1)?
Answer: The IC50 was 3330 nM.

Question: What about the IC50 (T98G; Homo sapiens, T98G) of the same compound?
Answer: Its IC50 is > 16 µM.

Question: What about the IC50 (TE-441-T; Homo sapiens, TE-441-T) of the same compound?
Answer: Its IC50 is > 16 µM.

Question: What about the IC50 (SW1990; Homo sapiens, SW1990) of the same compound?
Answer: Its IC50 is > 16 µM.

Question: What about the IC50 (CAL-120; Homo sapiens, CAL-120) of the same compound?
Answer: The IC50 was > 16 µM.

Question: What about the IC50 (KYSE-150 cell line; Homo sapiens, KYSE-150) of the same compound?
Answer: The IC50 was 10.4 µM.

Question: What about the IC50 (NCI-H1437; Homo sapiens, NCI-H1437) of the same compound?
Answer: Its IC50 is 6.13 µM.

Question: And the IC50 (SU-DHL-1; Homo sapiens, SU-DHL-1)?
Answer: The IC50 was > 16000 nM.

Question: What about the IC50 (NCI-H727; Homo sapiens, NCI-H727) of the same compound?
Answer: The IC50 was > 16 µM.

Question: What about the IC50 (T-24; Homo sapiens, T-24) of the same compound?
Answer: The IC50 was > 16000 nM.

Question: What about the IC50 (MDA-MB-453; Homo sapiens, MDA-MB-453) of the same compound?
Answer: The IC50 was > 16 µM.

Question: What about the IC50 (CESS; Homo sapiens, CESS) of the same compound?
Answer: Its IC50 is > 16000 nM.

Question: What about the IC50 (UMC-11; Homo sapiens, UMC-11) of the same compound?
Answer: The IC50 was > 0.016 mM.

Question: What about the IC50 (NCI-H1703; Homo sapiens, NCI-H1703) of the same compound?
Answer: Its IC50 is > 16000 nM.

Question: What about the IC50 (5637; Homo sapiens) of the same compound?
Answer: Its IC50 is 3210 nM.

Question: What about the IC50 (SR; Homo sapiens, SR) of the same compound?
Answer: The IC50 was > 16000 nM.

Question: What about the IC50 (AU565; Homo sapiens, AU565) of the same compound?
Answer: The IC50 was > 16000 nM.

Question: What about the IC50 (NCI-H64; Homo sapiens, NCI-H64) of the same compound?
Answer: Its IC50 is > 16000 nM.

Question: What about the IC50 (M14; Homo sapiens, M14) of the same compound?
Answer: Its IC50 is > 16 µM.

Question: And the IC50 (NCI-H322M; Homo sapiens, NCI-H322M)?
Answer: Its IC50 is > 0.016 mM.

Question: And the IC50 (KYSE-410; Homo sapiens, KYSE-410)?
Answer: The IC50 was > 16 µM.

Question: And the IC50 (HSC-3; Homo sapiens, HSC-3)?
Answer: The IC50 was > 16000 nM.
